Experimental data published in patent US20170202878A1, “Method for Preventing or Treating a Protein Aggregation Disease” (Queen Mary University of London, priority 2014, published 2017).

Legend:
[1] = system: RNAse-aggregated proteins from human neurons; assay: RNA-mediated re-folding of RNAse-aggregated proteins; assay type: biochemical; details: for protein solubilising effect of G-quadruple-forming and non-forming oligos: RNAse aggregated proteins from human neurons, aggregated proteins quantified
Procedure: Proteins were isolated from neuronal lysate by RNAse A/T1 treatment and centrifugation. Pelleted proteins were dissolved in 50 μl of denaturation buffer (20 mM Tris-HCl pH 7.5, 6 M Guanidine hydrochloride, 1% Triton X-100, 20 mM DTT) and sonicated for 5 min at room temperature. […] Dialysis was performed against 600 ml PBS buffer at 4° C. overnight after which the PBS was replaced with fresh PBS (400 ml) and the container placed in a water bath and kept at 37° C. for 1 h. The dialysed samples were transferred to 1.5 ml tubes and the volume adjusted to 100-200 μl with PBS. 7.5-10% of this was taken as Input. Precipitated proteins (Pel 1) were pelleted by centrifugation at 21.000×g for 10 min at +4° C., washed twice in RIPA buffer and processed for SDS-PAGE as before. 7.5-10% of the supernatants was saved (Sup 1) and the remaining volume was either divided into two new tubes supplemented with 0.5 μl vehicle or 0.5 μl RNAse A/T1 or the whole sample placed in one tube and treated with 0.5 μl RNAse A/T1. All samples were incubated at 37° C. for one hour and centrifuged as before. Pelleted proteins (P2) were washed as before and dissolved in SDS/Urea and sonicated. Equal volumes of each fraction were separated on SDS-PAGE gels and then either stained with coomassie or transferred to membranes for western blot analysis. RNA was isolated from cell lysates and purified ribosomes with Trizol LS (Life Technologies) according to the manufacturer's instructions. Ribosomes were isolated from Jurkat T-cells. RNA depleted for rRNA was isolated from the upper two thirds of the supernatant (after pelleting of ribosomes and five times dilution in water) with acid phenol (Life Technologies) followed by EtOH precipitation. RNA from intact cells was isolated with Isol-RNA Lysis Reagent (5 PRIME), according to the manufacturer's instructions. All RNA samples were dissolved in TE (10 mM Tris-HCl pH 8.0, 1 mM EDTA). RNA was analysed by 1.5% agarose or 6% PAGE/8M Urea gel electrophoresis and visualised with Ethidium Bromide. […]

[2] = system: aggregated proteins from Jurkat T-cells; assay: Two-step refolding of proteins with small molecules or synthetic DNA/RNA; details: increasing concentrations
[3] = system: cell or tissue lysate treated with RNAse A/T1; assay: Sodium orthovanadate: impact on RNAse-induced protein aggregation
Procedure: Cell or tissue lysate was prepared as described above. Lysate (200 μg at 2 μg/ul) is then treated with a mixture of RNAse A and T1 (A/T1), and incubated with increasing concentrations of Sodium Orthovanadate for one hour at 37° C. Aggregated proteins were isolated by centrifugation (21.000×g) at 4° C. for 20 min, washed twice in 500 μl RIPA buffer and then dissolved in 12 μl 6M Guanidine Hydrochloride, 20 mM Tris-HCl pH 7.5 by sonication for 5 min at room temperature. The amount of protein in 5 μl of this solution was then determined by using the BCA Kit (Thermo Scientific) according to the manufacturer's protocol. Data were expressed in arbitrary units (AU) as a fraction of the amount aggregated proteins (P1)/the amount of protein in the Input, and represent mean±s.d, n=2. […] The experiment was repeated with 50 μM SO and increasing concentrations of RNAse A/T1.

lysate from mouse cortex = assay: Ribonucleoside vanadyl: impact on protein aggregation; assay type: biochemical; details: 10 mM, 1 hour at 37° C., coomassie SDS-PAGE
[4] = system: Huntingtin (HTT), FUS and TARDBP in Jurkat cell lysates; assay type: biochemical, human; details: 15 min treatment, then 1 hour at 37° C.
[5] = system: amyloid-β, tau (MAPT), α-synuclein (SNCA), TARDBP (TDP-43), FUS, HTT, PrP, HNRNPA1, actin, NF-H in human neuronal lysates

## 18S 1129-69: predicted G4-forming ssDNA oligo derived from human 18S ribosomal RNA, 40 nt
[1]
  protein solubilising effect of G-quadruple-forming and non-forming oligos: can solubilise the proteins

## No 4G 1129-69: oligo with same nucleotides as 18S 1129 in an order not predicted to form G-quadruples (DNA TTAAGGGCATCTGATGCGGCGCGTGACGCGGCGCTAAGTG; DNA, backbone not given here)
[1]
  protein solubilising effect of G-quadruple-forming and non-forming oligos: much less efficient

## [Na+].[Na+].[Na+].[O]=[V]([O-])([O-])[O-] [Sodium orthovanadate]
[2]
  prevention of protein aggregation after refolding (BCA assay): can mimic RNA/DNA in preventing protein aggregation after refolding
[3]
  background protein aggregation in lysate: prevents any background protein aggregation
[3]; added to cell or tissue lysate together with RNAses, 1 hour at 37° C., e.g. TDP-43 and huntingtin
  inhibition of RNAse mediated protein aggregation: completely inhibit aggregation of the proteins

## Ribonucleoside vanadyl
Lysate from mouse cortex
  protein aggregation in lysate in the absence of exogenous RNAse: causes substantial protein aggregation
Lysate from mouse cortex; listed as Riobonucleoside vanadyl (VA)
  protein aggregation in lysate in the absence of exogenous RNAse: causes protein aggregation

## heparin
[1]; denatured in 6M guanidine hydrochloride, dialysed, same amount in weight of nucleic acid or heparin
  re-folding / solubilisation of RNAse-aggregated proteins (global protein profile): neither yeast tRNA nor heparin could substitute for the solubilising capacity of total human RNA

B1: immobilised RNAse A: biotinylated RNAse A coupled to magnetic strepavidine beads (protein, UniProt P61823 27-150, looked up)
Ribonuclease pancreatic: KETAAAKFERQHMDSSTSAASSSNYCNQMMKSRNLTKDRCKPVNTFVHESLADVQAVCSQKNVACKNGQTNCYQSYSTMSITDCRETGSSKYPNCAYKTTQANKHIIVACEGNPYVPVHFDASV
modifications: biotinylated, coupled to streptavidin magnetic beads
[4]
  aggregation of HTT, FUS and TARDBP after mixing 10% treated lysate with non-treated lysate (western blot): increase in aggregation

B2: RNase A: ribonuclease cleaving single-stranded RNA after C and U, from Sigma (protein)
chain: KETAAAKFERQHMDSSTSAASSSNYCNQMMKSRNLTKDRCKPVNTFVHESLADVQAVCSQKNVACKNGQTNCYQSYSTMSITDCRETGSSKYPNCAYKTTQANKHIIVACEGNPYVPVHFDASV
[5]
  proteins most efficiently precipitated by the RNase (western blot): TARDBP, HTT and PrP

B3: RNase T1: ribonuclease cleaving single-stranded RNA after G (protein, UniProt P00651 27-130, looked up)
Guanyl-specific ribonuclease …: ACDYTCGSNCYSSSDVSTAQAAGYQLHEDGETVGSNSYPHKYNNYEGFDFSVSSPYYEWPILSSGDVYSGGSPGADRVVFNENNQLAGVITHTGASGNNFVECT
[5]
  proteins most efficiently precipitated by the RNase (western blot): FUS
